Results: patent US9963480B2, “Nucleoside phosphoramidate compound and use thereof” (priority 2013, dated 2018)

Assay: Pharmacokinetic studies in SD rats: metabolite GS-461203 in liver homogenate
Assay type: in vivo
Settings: liver tissue, 50 mg/kg intragastric
Method: In this experiment, the compound of Example 1 was used, and the positive control drug was the same as above. Each of the compounds was added to 0.5% sodium carboxymethyl cellulose (CMC), and the mixture was vortexed to prepare a 10 mg/mL suspension for intragastric administration.
The standard substance GS-461203 was the metabolite of the tested compounds, and the chemical name was (2′R)-2′-deoxy-2′-fluoro-2′-methyluridinetriphosphate, which was purchased from TriLink BioTechnologies Corporation, USA.
Male SD rats, 6-8 weeks old, weighing 237.0-268.4 g, provided by Shanghai Super-B&K laboratory animal Co. Limited.
• 1) administration: dividing SD rats into 4 groups, with 18 rats in each group, intragastrically administering with the compound in an amount of 50 mg/kg. […]

CC(C)OC(=O)[C@H](C)NP(=O)(OC[C@H]1O[C@@H](n2ccc(=O)[nH]c2=O)[C@](C)(F)[C@@H]1O)Oc1ccc(-c2ccccc2)cc1 (stereo partly drawn) [Example 1, (2S)-2-((([1,1′-biphenyl]-4-yloxy)(((2R,3R,4R,5R)-5-(2,4-dioxo-3,4-dihydropyrimidin-1(2H)-yl)-4-fluoro-3-hydroxy-4-methyltetrahydrofuran-2-yl)methoxy)phosphoryl)amino)propanoic Acid Isopropyl Ester]
in vivo exposure level of the metabolite compared with the positive control: greater
